Assay in all cases: inhibition of tumour cell growth, NCI panel, 48 h
Assay [1] relates to KM12 colon.
Assay [2] deals with SF-539 CNS.
Assay [3] deals with BT-549 breast.
Assay [4] concerns OVCAR-5 ovarian.
Assay [5] concerns NCI-H522 lung.
Assay [6] has as its system LOX IMVI melanoma.
Assay [7] has as its system A549 NSCLC.
Assay [8] deals with ACHN renal.
The test system of assay [9] is HCT-15 colon.
Assay [10] relates to SF-268 CNS.

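These data come from cells grown in 96-well plates and exposed to compound for 48 hours at five concentrations. TGI: total growth inhibition.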 Where a SMILES comes first, the peptide text is derived from it. [ ]: non-standard residue; d: D form. Ava = NCCCCC(=O)O; Mpa = O=C(O)CCS Where only a bound is given, the exact number is not on record here.

On to `CC(NC(=O)CCS)C(=O)NC(C)C(=O)NC(Cc1c[nH]c2ccccc12)C(=O)NC(Cc1c[nH]cn1)C(=O)NC(CO)C(=O)NC(Cc1c[nH]c2ccccc12)C(=O)NCCCCC(=O)NC(C)C(=O)NC(CCC(N)=O)C(=O)NC(CCCCN)C(=O)NC(C)C(=O)NC(CCCNC(=N)N)C(=O)NC(CCCCN)C(N)=O` (stereo not drawn) ([Mpa]AAWHSW[Ava]AQKARK-NH2; configuration not given here), for which the TGI is 88.7 µM in assay [1]; > 100 µM in [2]; > 100 µM in assay [3]; > 100 µM in assay [4]; > 100 µM in [5]; > 100 µM in [6]. The TGI in assay [7], in assay [8], in assay [9] and in assay [10] was > 100 µM throughout.

Take `O=C(NC(=S)Nc1ccc(Br)cc1)c1ccc2c(c1)Sc1ccccc1O2`: the TGI in assay [1], in assay [2], in assay [3], in assay [4], in assay [5] and in assay [6] was > 100 µM throughout. Besides, the TGI in [7], in assay [8], in [9] and in assay [10] was > 100 µM in each case.

As for `CCOC(=O)NC(Nc1ccc(F)cc1F)(C(F)(F)F)C(F)(F)F`, the TGI in [1], in [2], in assay [3], in assay [4], in assay [5] and in [6] was > 100 µM throughout. Besides, the TGI in assay [7], in assay [8], in assay [9] and in assay [10] was > 100 µM each time.

On to `CCOC(CBr)OC1C(=O)OCC1(C)C` (stereo not drawn), for which the TGI in assay [1], in [3], in assay [4], in assay [5], in assay [6] and in assay [7] was > 100 µM throughout. Further, the TGI in assay [8], in assay [9] and in assay [10] was > 100 µM each time.

For the compound `Nc1cc(CO)cc(Nc2c3ccccc3nc3ccccc23)c1`, the TGI in assay [1] worked out at 29.8 µM; in assay [2], 32 µM; in [3], 27.7 µM; in assay [4], 32.2 µM; in assay [5] it was 18.9 µM; in [6] it was 31.5 µM. The TGI in assay [7] is 38.9 µM; in assay [8], 31.9 µM; in [9], 34.4 µM; in assay [10], 60 µM.

Consider `Cc1nc2c(Cl)cc(Cl)cc2c2c1CCO2`, for which the TGI in assay [1], in [2], in [3], in [4], in assay [5] and in assay [6] was > 100 µM in each case. The TGI in assay [7], in assay [8], in [9] and in assay [10] was > 100 µM each time.

In the case of `CC1=C[P+](c2ccccc2)(c2ccccc2)c2ccccc2O1`, the TGI in assay [1] was 10.8 µM; in [2] it was 31.3 µM; in assay [3], > 100 µM; in assay [4], > 100 µM; in [5], 17.3 µM; in assay [6], 17.2 µM. Further, the TGI in assay [7], in assay [8], in assay [9] and in [10] was > 100 µM in each case.

With `Nc1cc(C2CCCc3c2[nH]c2ccccc32)ccc1O` (stereo not drawn), the TGI in assay [1] was > 100 µM; in assay [2], > 100 µM; in assay [3], > 100 µM; in assay [4], > 100 µM; in assay [5], > 100 µM; in [6], 71.2 µM. Further, the TGI in assay [7], in [8], in [9] and in [10] was > 100 µM throughout.

As to `Cc1[nH]c(=O)nc(N/N=C/c2c3ccccc3c(Cl)c3ccccc23)c1C(=O)Nc1ccc(Cl)cc1`, the TGI in assay [3], in [4], in assay [5], in [6], in assay [7] and in assay [8] was > 100 µM in each case. Moreover, the TGI in assay [9] and in assay [10] was > 100 µM throughout.

In the case of `O=c1cc(NNc2ccccc2)[nH]c(=O)[nH]1`, the TGI is 32.8 µM in assay [1]; > 100 µM in assay [2]; > 100 µM in [4]; 46.2 µM in assay [5]; 42.7 µM in assay [6]; > 100 µM in [7]. In addition, the values for the TGI in [8], in [9] and in assay [10] were 26.1 µM, 30 µM and 99.6 µM, respectively.

With `COc1ccc(N2C(=O)C3ON(Cc4ccc(CC(N)=O)cc4)C(c4c5ccccc5c(C)c5ccccc45)C3C2=O)cc1` (stereo not drawn), the TGI in assay [1] is > 100 µM; in assay [3] it was > 100 µM; in assay [4], 83.8 µM; in assay [5] it was > 100 µM; in assay [6], > 100 µM; in assay [7], > 100 µM. The TGI in assay [8] was 77.9 µM; in assay [9], 74.9 µM; in assay [10], > 100 µM.

With `CCOC(=O)/C(C(N)=O)=C(\O)C(=O)/C=C(\O)c1ccc(Cl)cc1`, the TGI in assay [1] is 36.9 µM; in assay [3], 33.6 µM; in [4] it was 54.3 µM; in assay [5] it was 34.3 µM; in [6] it was 31 µM; in assay [7] it was > 100 µM. Moreover, the TGI came out at 39.7 µM in assay [8], 34.8 µM in [9] and 59.9 µM in assay [10].

`CCC1c2[nH]c3ccccc3c2C[C@H]2C(=O)NC(C)C(=O)N12` (stereo partly drawn): the TGI in assay [1], in assay [3], in [4], in [5], in assay [6] and in assay [7] was > 100 µM throughout. For the same compound, the TGI in assay [8], in [9] and in [10] was > 100 µM each time.

For the origin of these results see PubChem BioAssay (NCI).
